Assay results taken from the supplement of paper PMC11061612.

Columns and labels:
Assay in all cases: combination Emax (second highest fraction inhibited in the dose matrix, 72 h); higher = more inhibition; extreme values may be limits of the assay
769-P (Kidney Carcinoma) = test system: 769-P (Kidney Carcinoma)
Procedure, shortened: (§1)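 After 24 hours at 37°C and 5% CO2 in 1536-well plates, cells in DMEM/F12 or RPMI plus 10% FBS received two-drug dose matrices for 72 hours. Viability came from CellTiter-Glo 2.0 luminescence and was scaled as inhibition, anchored at 0 by vehicle wells and at 1 by blank wells. Combination Emax is taken as the second-highest inhibition in the matrix, and Bliss excess as the observed combination effect less EA + EB − EA·EB, with EA and EB the single-agent effects.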

A101D (Melanoma) = test system: A101D (Melanoma)
Procedure, shortened: as §1

AU565 (Breast Carcinoma) = test system: AU565 (Breast Carcinoma)
Procedure, shortened: as §1

[1] = test system: CA46 (Burkitt's Lymphoma)
Procedure, shortened: as §1

[2] = test system: CAL-27 (Oral Cavity Carcinoma)
Procedure, shortened: as §1

[3] = test system: DMS-53 (Small Cell Lung Carcinoma)
Procedure, shortened: as §1

EW-16 (Ewing's Sarcoma) = test system: EW-16 (Ewing's Sarcoma)
Procedure, shortened: as §1

[4] = test system: HCC1395 (Breast Carcinoma)
Procedure, shortened: as §1

[5] = test system: JVM-2 (B-Cell Non-Hodgkin's Lymphoma)
Procedure, shortened: as §1

KP-N-YN (Neuroblastoma) = test system: KP-N-YN (Neuroblastoma)
Procedure, shortened: as §1

[6] = test system: KYSE-140 (Esophageal Squamous Cell Carcinoma)
Procedure, shortened: as §1

[7] = test system: KYSE-220 (Esophageal Squamous Cell Carcinoma)
Procedure, shortened: as §1

[8] = test system: LU-165 (Small Cell Lung Carcinoma)
Procedure, shortened: as §1

[9] = test system: NCI-H1703 (Squamous Cell Lung Carcinoma)
Procedure, shortened: as §1

[10] = test system: NCI-H2228 (Lung Adenocarcinoma)
Procedure, shortened: as §1

[11] = test system: NCI-H716 (Colorectal Carcinoma)
Procedure, shortened: as §1

PEO1 (Ovarian Carcinoma) = test system: PEO1 (Ovarian Carcinoma)
Procedure, shortened: as §1

[12] = test system: SK-HEP-1 (Hepatocellular Carcinoma)
Procedure, shortened: as §1

[13] = test system: SW620 (Colorectal Carcinoma)
Procedure, shortened: as §1

WM1552C (Melanoma) = test system: WM1552C (Melanoma)
Procedure, shortened: as §1

SMILES | combination Emax (769-P (Kidney Carcinoma)) | combination Emax (A101D (Melanoma)) | combination Emax (AU565 (Breast Carcinoma)) | combination Emax [1] | combination Emax [2] | combination Emax [3] | combination Emax (EW-16 (Ewing's Sarcoma)) | combination Emax [4] | combination Emax [5] | combination Emax (KP-N-YN (Neuroblastoma)) | combination Emax [6] | combination Emax [7] | combination Emax [8] | combination Emax [9] | combination Emax [10] | combination Emax [11] | combination Emax (PEO1 (Ovarian Carcinoma)) | combination Emax [12] | combination Emax [13] | combination Emax (WM1552C (Melanoma))
CN(C)CCCOc1ccc(-c2ccc3ncc4c(c3c2)n(C2CCOCC2)c(=O)n4C)cn1 [AZD0156] + C[C@@H]1COCCN1C2=NC(=NC(=C2)C3(CC3)[S@](=N)(=O)C)C4=C5C=CNC5=NC=C4 [AZD6738] (first compound max 1 µM, 7x7, partner max 10 µM) | 0.84 | 0.703 | 0.473 | 0.746 | 0.586 | 0.134 | 0.695 | 0.8 | 0.849 | 0.973 | 0.934 | 0.876 | 0.233 | 0.856 | 0.517 | 0.667 | 0.533 | 0.391 | 0.566 | 0.783
COc1nnc2ccc(N3CCC(c4ccc(OCCN5CCN(C)C(=O)[C@H]5C)cc4)CC3)nn12 [AZD5153] + C=CCn1c(=O)c2cnc(Nc3ccc(N4CCN(C)CC4)cc3)nc2n1-c1cccc(C(C)(C)O)n1 [AZD1775] (first compound max 1 µM, partner max 1 µM) | 0.956 | 0.737 | 0.742 | 0.744 | 0.63 | 0.51 | 0.679 | 0.524 | 0.897 | 0.924 | 0.832 | 0.804 | 0.602 | 0.992 | 0.465 | 0.524 | 0.691 | 0.312 | 0.685 | 0.439
NC1(C(=O)N[C@@H](CCO)c2ccc(Cl)cc2)CCN(c2ncnc3[nH]ccc23)CC1 [Capivasertib] + Cn1cnc2c(F)c(Nc3ccc(Br)cc3Cl)c(C(=O)NOCCO)cc21 [Selumetinib] (first compound max 10 µM, 7x7, partner max 10 µM) | 0.426 | 0.785 | 0.64 | 0.2 | 0.815 | 0.301 | 0.393 | 0.425 | 0.737 | 0.391 | 0.873 | 0.763 | 0.444 | 0.606 | 0.58 | 0.783 | 0.56 | 0.197 | 0.712 | 0.638
CC1(C)CCC(CN2CCN(c3ccc(C(=O)NS(=O)(=O)c4ccc(NCC5CCOCC5)c([N+](=O)[O-])c4)c(Oc4cnc5[nH]ccc5c4)c3)CC2)=C(c2ccc(Cl)cc2)C1 [Venetoclax] + COc1cc(Nc2ncc3c(n2)-c2ccc(Cl)cc2C(c2c(F)cccc2OC)=NC3)ccc1C(=O)O [Alisertib] (first compound max 1 µM, 7x7, partner max 10 µM) | 0.303 | 0.632 | 0.504 | 0.436 | 0.689 | 0.809 | 0.726 | 0.688 | 0.892 | 0.827 | 0.423 | 0.379 | 0.241 | 0.554 | 0.396 | 0.82 | 0.276 | 0.349 | 0.387 | 0.508
Cn1cnc2c(F)c(Nc3ccc(Br)cc3Cl)c(C(=O)NOCCO)cc21 [Selumetinib] + C=CCn1c(=O)c2cnc(Nc3ccc(N4CCN(C)CC4)cc3)nc2n1-c1cccc(C(C)(C)O)n1 [AZD1775] (first compound max 10 µM, partner max 1 µM) | 0.904 | 0.64 | 0.644 | 0.635 | 0.578 | 0.247 | 0.402 | 0.425 | 0.906 | 0.936 | 0.683 | 0.664 | 0.261 | 0.944 | 0.453 | 0.428 | 0.335 | 0.315 | 0.731 | 0.458
Cc1c2c(nn1C)CSCc1cc(n(C)n1)CSc1cc(c3ccccc3c1)OCCCc1c(C(=O)O)n(C)c3c-2c(Cl)ccc13 [AZD5991] + C[C@@H]1COCCN1C2=NC(=NC(=C2)C3(CC3)[S@](=N)(=O)C)C4=C5C=CNC5=NC=C4 [AZD6738] (first compound max 1 µM, 7x7, partner max 10 µM) | 0.797 | 1 | 1 | 0.449 | 1 | 0.616 | 0.756 | 0.918 | 0.912 | 0.968 | 0.925 | 0.877 | 0.321 | 0.961 | 0.433 | 0.574 | 0.522 | 0.354 | 0.543 | 0.836
CC(=O)c1c(C)c2cnc(Nc3ccc(N4CCNCC4)cn3)nc2n(C2CCCC2)c1=O [Palbociclib] + CC1(C)CCC(CN2CCN(c3ccc(C(=O)NS(=O)(=O)c4ccc(NCC5CCOCC5)c([N+](=O)[O-])c4)c(Oc4cnc5[nH]ccc5c4)c3)CC2)=C(c2ccc(Cl)cc2)C1 [Venetoclax] (first compound max 10 µM, 7x7, partner max 1 µM) | 0.814 | 0.424 | 0.262 | 0.355 | 0.0994 | 0.327 | 0.333 | 0.0711 | 0.762 | 0.42 | 0.199 | 0.189 | 0.115 | 0.486 | 0.238 | 0.475 | 0.194 | 0.621 | 0.385 | 0.28
CC1(C)CCC(CN2CCN(c3ccc(C(=O)NS(=O)(=O)c4ccc(NCC5CCOCC5)c([N+](=O)[O-])c4)c(Oc4cnc5[nH]ccc5c4)c3)CC2)=C(c2ccc(Cl)cc2)C1 [Venetoclax] + C=CCn1c(=O)c2cnc(Nc3ccc(N4CCN(C)CC4)cc3)nc2n1-c1cccc(C(C)(C)O)n1 [AZD1775] (first compound max 1 µM, partner max 1 µM) | 0.744 | 0.736 | 0.672 | 0.738 | 0.328 | 0.694 | 0.526 | 0.81 | 0.97 | 0.981 | 0.814 | 0.832 | 0.364 | 0.977 | 0.494 | 0.377 | 0.337 | 0.34 | 0.51 | 0.785
NC1(C(=O)N[C@@H](CCO)c2ccc(Cl)cc2)CCN(c2ncnc3[nH]ccc23)CC1 [Capivasertib] + CCN(CCO)CCCOc1ccc2c(Nc3cc(CC(=O)Nc4cccc(F)c4)[nH]n3)ncnc2c1 [AZD2811] (first compound max 10 µM, 7x7, partner max 1 µM) | 0.422 | 0.552 | 0.819 | 0.362 | 0.646 | 0.238 | 0.634 | 0.455 | 0.755 | 0.608 | 0.829 | 0.623 | 0.47 | 0.678 | 0.533 | 0.457 | 0.418 | 0.533 | 0.328 | 0.447
Cc1c2c(nn1C)CSCc1cc(n(C)n1)CSc1cc(c3ccccc3c1)OCCCc1c(C(=O)O)n(C)c3c-2c(Cl)ccc13 [AZD5991] + CCN(CCO)CCCOc1ccc2c(Nc3cc(CC(=O)Nc4cccc(F)c4)[nH]n3)ncnc2c1 [AZD2811] (first compound max 1 µM, 7x7, partner max 1 µM) | 0.328 | 0.998 | 1 | 0.193 | 0.974 | 0.56 | 0.808 | 0.713 | 0.772 |  | 0.602 | 0.308 | 0.307 | 0.874 | 0.296 | 0.349 | 0.321 | 0.387 | 0.512 | 0.824
C=CCn1c(=O)c2cnc(Nc3ccc(N4CCN(C)CC4)cc3)nc2n1-c1cccc(C(C)(C)O)n1 [AZD1775] + C[C@@H]1COCCN1C2=NC(=NC(=C2)C3(CC3)[S@](=N)(=O)C)C4=C5C=CNC5=NC=C4 [AZD6738] (first compound max 1 µM, partner max 10 µM) | 0.847 | 0.749 | 0.603 | 0.739 | 0.682 | 0.221 | 0.771 | 0.896 | 0.901 |  | 0.967 | 0.941 | 0.48 | 0.958 | 0.653 | 0.623 | 0.6 | 0.65 | 0.83 | 0.805
Cc1c2c(nn1C)CSCc1cc(n(C)n1)CSc1cc(c3ccccc3c1)OCCCc1c(C(=O)O)n(C)c3c-2c(Cl)ccc13 [AZD5991] + CC1(C)CCC(CN2CCN(c3ccc(C(=O)NS(=O)(=O)c4ccc(NCC5CCOCC5)c([N+](=O)[O-])c4)c(Oc4cnc5[nH]ccc5c4)c3)CC2)=C(c2ccc(Cl)cc2)C1 [Venetoclax] (first compound max 1 µM, 7x7, partner max 1 µM) | 0.122 | 0.989 | 1 | 0.118 | 0.955 | 0.828 | 0.273 | 0.736 | 0.639 | 0.817 | 0.485 | 0.181 | 0.291 |  | 0.184 | 0.176 | 0.164 | 0.45 | 0.191 | 0.735
